Laboratory results as given in ChEMBL document CHEMBL1201862, “PubChem BioAssay data set” (2004).
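48-hour exposure; five concentrations; linearly interpolated endpoints. Abbreviation: GI50, concentration required for 50% inhibition of growth.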 Active and inactive are the calls of the source. No stated cut-off is given here; in the data, active = GI50 up to about 1.1 µM and inactive = higher.

Experiments:
Test in all cases: NCI anticancer screen, dose series, 48 h
K562 = tested on: K562
TK-10 = tested on: TK-10
SK-MEL-5 = tested on: SK-MEL-5
NCI/ADR-RES = tested on: NCI/ADR-RES
T47D = tested on: T47D
OVCAR-8 = tested on: OVCAR-8
MCF7 = tested on: MCF7
SNB-75 = tested on: SNB-75
MDA-MB-231 = tested on: MDA-MB-231
SF-295 = tested on: SF-295
SW-620 = tested on: SW-620
HL-60 = tested on: HL-60
OVCAR-3 = tested on: OVCAR-3
HOP-62 = tested on: HOP-62
SR = tested on: SR
IGROV-1 = tested on: IGROV-1
SK-MEL-28 = tested on: SK-MEL-28
HCT-116 = tested on: HCT-116
NCI-H460 = tested on: NCI-H460
OVCAR-4 = tested on: OVCAR-4

Measured: GI50

O=[PH]1c2ccccc2Nc2ccccc21
inactive: K562 21.6 µM | TK-10 > 100 µM | SK-MEL-5 > 100 µM | NCI/ADR-RES > 100 µM | T47D > 100 µM | OVCAR-8 > 100 µM | MCF7 > 100 µM | SNB-75 > 100 µM | MDA-MB-231 45.9 µM | SF-295 > 100 µM | SW-620 63.7 µM | HL-60 75.7 µM | OVCAR-3 52.6 µM | HOP-62 > 100 µM | SR > 100 µM | IGROV-1 > 100 µM | SK-MEL-28 > 100 µM | HCT-116 > 100 µM | NCI-H460 53.5 µM | OVCAR-4 64.7 µM

CCCCn1c(N)c(-c2nc3ccccc3o2)sc1=S
inactive: K562 22.3 µM | TK-10 18.3 µM | SK-MEL-5 14 µM | NCI/ADR-RES 18.2 µM | T47D 19.3 µM | OVCAR-8 17.5 µM | MCF7 24.7 µM | MDA-MB-231 16.8 µM | SF-295 12.6 µM | HL-60 > 100 µM | OVCAR-3 16.7 µM | HOP-62 21.5 µM | SR 17.7 µM | IGROV-1 21.8 µM | SK-MEL-28 18.8 µM | HCT-116 10.5 µM | NCI-H460 15.8 µM | OVCAR-4 5.81 µM

NNC(=O)Nc1nc2ccc(NN)cc2[nH]1
inactive: K562 18.7 µM | TK-10 36 µM | SK-MEL-5 22.9 µM | NCI/ADR-RES 47.8 µM | T47D 26.4 µM | OVCAR-8 54 µM | MCF7 26.1 µM | SNB-75 25.6 µM | MDA-MB-231 51.9 µM | SF-295 47.2 µM | SW-620 23.8 µM | HL-60 12.5 µM | OVCAR-3 24.5 µM | HOP-62 44.4 µM | SR 19.5 µM | IGROV-1 42 µM | SK-MEL-28 19 µM | HCT-116 32.8 µM | NCI-H460 27.4 µM | OVCAR-4 34.3 µM

NCCN(CCN)/[N+]([O-])=N/O
inactive: K562 50.5 µM | TK-10 > 100 µM | SK-MEL-5 > 100 µM | NCI/ADR-RES 82.8 µM | T47D > 100 µM | OVCAR-8 > 100 µM | MCF7 47.4 µM | SNB-75 > 100 µM | MDA-MB-231 > 100 µM | SF-295 > 100 µM | SW-620 > 100 µM | HL-60 > 100 µM | OVCAR-3 > 100 µM | HOP-62 > 100 µM | SR 91.2 µM | IGROV-1 > 100 µM | SK-MEL-28 > 100 µM | HCT-116 > 100 µM | NCI-H460 69.3 µM | OVCAR-4 > 100 µM

Cc1cc(C)n(-c2nc(-n3nc(C)cc3C)nc(-n3nc(C)cc3C)n2)n1
inactive: K562 59.2 µM | TK-10 30.1 µM | SK-MEL-5 > 100 µM | NCI/ADR-RES > 100 µM | T47D > 100 µM | OVCAR-8 68.9 µM | MCF7 > 100 µM | MDA-MB-231 > 100 µM | SF-295 > 100 µM | SW-620 > 100 µM | HL-60 > 100 µM | OVCAR-3 > 100 µM | HOP-62 > 100 µM | SR > 100 µM | IGROV-1 > 100 µM | SK-MEL-28 > 100 µM | HCT-116 > 100 µM | NCI-H460 33.2 µM | OVCAR-4 > 100 µM

CC(C)=CCN1c2ccccc2[C@@]2(CC=C(C)C)CCN(C)[C@@H]12 [(+)-DEBROMOFLUSTRAMINE B]
inactive: K562 19.6 µM | TK-10 35.9 µM | SK-MEL-5 17.6 µM | NCI/ADR-RES 18.3 µM | T47D 20.7 µM | OVCAR-8 28.2 µM | MCF7 17.3 µM | SNB-75 26.1 µM | MDA-MB-231 21.4 µM | SF-295 21 µM | SW-620 26.7 µM | HL-60 16.1 µM | OVCAR-3 18.1 µM | HOP-62 19.2 µM | SR 33.4 µM | IGROV-1 21.6 µM | SK-MEL-28 35.5 µM | HCT-116 23.6 µM | NCI-H460 14.8 µM | OVCAR-4 35.6 µM

CSc1ccc(/C=C2\N=C(c3ccccc3)N(/N=C/c3cc4cc(C)ccc4nc3Cl)C2=O)cc1
inactive: K562 22 µM | TK-10 16.9 µM | SK-MEL-5 16.1 µM | NCI/ADR-RES 19.1 µM | T47D 22.9 µM | OVCAR-8 16.1 µM | MCF7 11.4 µM | SNB-75 21.2 µM | MDA-MB-231 19.6 µM | SF-295 17.9 µM | SW-620 27.4 µM | HL-60 22 µM | OVCAR-3 19.5 µM | HOP-62 33.2 µM | SR 12.1 µM | IGROV-1 14.3 µM | SK-MEL-28 18.2 µM | HCT-116 13.6 µM | NCI-H460 20.7 µM | OVCAR-4 17.1 µM
